Reference: PMC9709406 (Frontiers in Pharmacology, 2022)
Values joined by “and” are separate entries in the source; they are usually repeats but may differ in a detail not shown here. Equal entries are not always repeated. Where two headings read alike, the source gives them in different places. Values belong to the compound of their own block, whether it stands above or below them.

Columns and labels:
H1650 cells = experiment: MTT assay for cell proliferation and cytotoxicity, H1650; assay type: cell-based; conditions: Homo sapiens, NCI-H1650, 48 h, H1650, n = 5
Source text: (§1) The human cancer cells (H1650, H1975, KYSE70, KYSE410 and KYSE450) were purchased from the Type Culture Collection of the Chinese Academy of Sciences (Shanghai, China). The human immortalized normal esophageal epithelial cell line SHEE was donated by Dr. Enmin Li from the Laboratory of Tumor Pathology (Shantou University Medical College, Shantou, Guangdong, China). Drug-resistant cells (H1650TR, H1975OR, KYSE70TR, KYSE410TR and KYSE450TR) were induced by China-US (Henan) Hormel Cancer Institute. The cellswere cultured in RPMI-1640 complete growth medium containing 100 U/mL penicillin-streptomycin and 10% FBS. Based on the above medium formula, 100 nm/L paclitaxel was added in taxol-resistant cells, 100 nm/L gefitinib was added in gefitinib-resistant cells. The cells were incubated at 37 °C in an atmosphere containing 5% of CO2. The compounds were dissolved in DMSO to make a 50 mM stock solution and were diluted to the concentration of working solutions with complete growth medium before administration.
(§2) Cells were seeded in 96-well plates with 2,200–2,500 cells/well in100 μL. One day after seeding, test compounds with the concentration between 0 and 50 μM were added with 0.1% DMSO as control. Five multiple wells for each concentration. After 48 h, MTT was added and incubated in the plate for 1–4 h in the incubator. The absorbance at 490 nm was measured using a microplate reader (Thermo).

H1975 cells = experiment: MTT assay for cell proliferation and cytotoxicity, H1975; assay type: cell-based, human; conditions: Homo sapiens
Source text: as §1
as §2, with “After 48 h, MTT was added and incubated in the plate for 1–4 h in the incubator.” left out

SHEE cells = experiment: MTT assay, normal esophageal epithelial cell line SHEE; assay type: cell-based; conditions: Homo sapiens, 48 h, n = 5
Source text: as §1, §2

KYSE70 cells = experiment: MTT assay, KYSE70; assay type: cell-based, human; conditions: for IC50: Homo sapiens, KYSE-70, MTT, 48 h, KYSE70, n = 5
Source text: as §1, §2

KYSE410 cells = experiment: MTT assay, KYSE410; assay type: cell-based, human; conditions: for IC50: Homo sapiens, KYSE-410, MTT, 48 h, KYSE410, n = 5, read-out: IC50 48 h KYSE410
Source text: as §1, §2

KYSE450 cells = experiment: MTT assay, KYSE450; assay type: cell-based, human; conditions: for IC50: Homo sapiens, KYSE-450, MTT, 48 h, KYSE450, n = 5, read-out: IC50 48 h KYSE450; for absorbance 490 nm, single well / mean absorbance 490 nm (row G) / mean absorbance 490 nm minus background (row H): KYSE450
Source text: as §1, §2

EGFR = molecular target: T1, EGFR (Homo sapiens, UniProt P00533); experiment: EGFR kinase assay (ELISA); assay type: biochemical; conditions: 25°C
T1 construct: purchased Active MOTIF
Procedure: Kinase inhibitory activities of the compounds were evaluated using the Protein Tyrosine Kinase Assay Kit (SignalChem (British Columbia, Canada)). The kinase enzyme of EGFR was purchased from Active MOTIF. The ELISA experiments were carried out according the instructions of the kit. Active kinases were incubated with indicated compounds in 1 × reaction buffer containing 20 μM substrate at 25°C for 1 h and 2 h, respectively. The absorbance was read with a multimode plate reader (PerkinElmer, United States) at 450 nm.

[1] = test system: KYSE450 cell-derived xenograft; experiment: In vivo cell-derived xenograft (CDX) mouse model; set-up: species or system nu/nu nude mice
Procedure: Mice were housed under specific pathogen-free conditions. All animal experiments were approved by the Bioethics Committee of Zhengzhou University and followed the guidelines set by the Institutional Animal Care and Use Committee (CUHCI2019002, CUHCI2021001, and CUHCI2021005). To generate the cell-derived xenograft (CDX) mouse model, nu/nu nude mice (Vital River Labs., Beijing, China) were subcutaneously injected with 5 × 10^6 cells (KYSE450). […] Tumor volume was calculated as follows: length × width × height × 0.5. Tumor size and mice weight were measured every 2–3 days. Compounds were administered for 15 days. The tumors were extracted for weighting, immunohistochemistry and immunofluorescence studies.
Frozen sections were washed three times with PBS and incubated overnight at 4°C with Ki-67 antibody. The next day, sections were washed three times and incubated with secondary antibody in PBS. After several washes, slides were counterstained with DAPI (Solarbio). The sections were mounted on microscope and imaged using fluorescent microscopy (Nikon, Tokyo, Japan). Image-Pro Plus 6.0 was used to analyze the fluorescence intensity.
Histological sections were dewaxed, antigens were repaired and sealed with serum in sequence. Next, histological sections were incubated overnight with diluted primary antibodies (1 : 500 dilution), and the control specimens were treated with PBS. The sections were washed 3 times with PBS. Secondary antibody was added and the system was then placed at 37 °C for half an hour. The systems were washed 3 times with PBS. Color developing agent was added. After washing with water, the system was soaked in hematoxylin for 0.5 min for dyeing. The re-dyed slides were washed with water, and then dehydrated. Neutral gums were dropped on the side of the tissue. The slices were then covered with cover glass, sealed and placed in a ventilator for drying. Immunohistochemical staining analysis was then carried out with Image-Pro Plus 6.0.

H1975OR cells = experiment: MTT assay, osimertinib-resistant H1975OR; assay type: cell-based; conditions: Homo sapiens, H1975OR, resistance-inducing drug (osimertinib)
Source text: as §1
as §2, with “After 48 h, MTT was added and incubated in the plate for 1–4 h in the incubator.” left out

[2] = NCI-H1975, 48 h, MTT, 48 h, H1975, n = 5, read-out: IC50 48 h H1975
[3] = concentration 12.5 (unit not given)
[4] = concentration 25 (unit not given)
[5] = concentration 50 (unit not given)
[6] = concentration 100 (unit not given)
[7] = incubation 1 h, read-out: IC50 EGFR 1 h
[8] = incubation 2 h, read-out: IC50 EGFR 2 h
[9] = nude mice, 50 mg/kg i.p. every day, 15 days, vs control group and icotinib group

T1 sequence (P00533 25-1210): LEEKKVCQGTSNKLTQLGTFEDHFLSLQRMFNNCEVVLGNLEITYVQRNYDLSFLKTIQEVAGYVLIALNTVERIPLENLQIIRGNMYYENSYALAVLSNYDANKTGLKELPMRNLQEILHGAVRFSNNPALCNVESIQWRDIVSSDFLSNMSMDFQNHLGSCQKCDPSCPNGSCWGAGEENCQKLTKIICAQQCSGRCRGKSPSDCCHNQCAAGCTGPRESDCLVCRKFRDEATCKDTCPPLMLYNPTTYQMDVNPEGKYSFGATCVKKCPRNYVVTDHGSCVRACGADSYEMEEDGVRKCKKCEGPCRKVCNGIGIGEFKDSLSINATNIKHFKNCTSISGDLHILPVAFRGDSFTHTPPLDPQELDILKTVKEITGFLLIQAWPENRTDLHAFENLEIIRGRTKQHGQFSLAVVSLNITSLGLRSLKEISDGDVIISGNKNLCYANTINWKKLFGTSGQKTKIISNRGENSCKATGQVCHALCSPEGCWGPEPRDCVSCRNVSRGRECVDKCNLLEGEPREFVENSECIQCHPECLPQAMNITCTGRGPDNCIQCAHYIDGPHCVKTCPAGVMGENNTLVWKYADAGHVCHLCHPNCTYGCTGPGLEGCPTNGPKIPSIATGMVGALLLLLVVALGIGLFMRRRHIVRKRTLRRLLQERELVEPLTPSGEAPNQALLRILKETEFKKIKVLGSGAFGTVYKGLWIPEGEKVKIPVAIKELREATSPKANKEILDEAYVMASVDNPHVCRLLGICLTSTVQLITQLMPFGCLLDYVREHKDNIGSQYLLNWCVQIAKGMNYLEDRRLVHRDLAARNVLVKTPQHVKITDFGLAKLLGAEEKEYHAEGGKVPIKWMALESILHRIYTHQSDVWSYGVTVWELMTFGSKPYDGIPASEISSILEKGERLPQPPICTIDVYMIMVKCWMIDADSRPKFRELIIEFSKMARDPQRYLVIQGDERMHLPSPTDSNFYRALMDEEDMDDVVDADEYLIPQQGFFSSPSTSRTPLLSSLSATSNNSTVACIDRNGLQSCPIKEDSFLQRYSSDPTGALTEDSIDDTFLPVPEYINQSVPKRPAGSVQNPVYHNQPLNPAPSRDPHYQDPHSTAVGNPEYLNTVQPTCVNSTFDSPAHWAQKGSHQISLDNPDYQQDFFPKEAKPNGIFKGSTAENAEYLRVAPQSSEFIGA

IC50 (EGFR; [7]): 5.14 µM
IC50 (EGFR; [8]): 26 µM
melting point: 121 to 124 °C
SMILES: COc1ccccc1-n1cc(-c2cccc(Nc3ncnc4cc5c(cc34)OCCOCCOCCO5)c2)nn1 [compound 3d]
IC50 (H1650 cells): 10.8 ± 0.89 µM
IC50 (H1975 cells; [2]): 19.4 ± 1.21 µM
IC50 (SHEE cells): 7.2 ± 0.71 µM
IC50 (KYSE70 cells): 7.35 ± 0.7 µM
blank-corrected absorbance 490 nm relative to control (fraction) (KYSE70 cells; KYSE70, concentration 12.5): 0.1496
inhibition (1 minus fraction of control) (KYSE70 cells; KYSE70, concentration 12.5): 0.8504
blank-corrected absorbance 490 nm relative to control (fraction) (KYSE70 cells; KYSE70, concentration 25): 0.05438
inhibition (1 minus fraction of control) (KYSE70 cells; KYSE70, concentration 25): 0.9456
blank-corrected absorbance 490 nm relative to control (fraction) (KYSE70 cells; KYSE70, concentration 50): 0.05391
inhibition (1 minus fraction of control) (KYSE70 cells; KYSE70, concentration 50): 0.9461
blank-corrected absorbance 490 nm relative to control (fraction) (KYSE70 cells; KYSE70, concentration 100): 0.08017
inhibition (1 minus fraction of control) (KYSE70 cells; KYSE70, concentration 100): 0.9198
IC50 (KYSE410 cells): 8.67 ± 0.71 µM
blank-corrected absorbance 490 nm relative to control (fraction) (KYSE410 cells; KYSE410, concentration 12.5): 0.2787
inhibition (1 minus fraction of control) (KYSE410 cells; KYSE410, concentration 12.5): 0.7213
blank-corrected absorbance 490 nm relative to control (fraction) (KYSE410 cells; KYSE410, concentration 25): -0.00175
inhibition (1 minus fraction of control) (KYSE410 cells; KYSE410, concentration 25): 1.002
blank-corrected absorbance 490 nm relative to control (fraction) (KYSE410 cells; KYSE410, concentration 50): 0.004317
inhibition (1 minus fraction of control) (KYSE410 cells; KYSE410, concentration 50): 0.9957
blank-corrected absorbance 490 nm relative to control (fraction) (KYSE410 cells; KYSE410, concentration 100): 0.02345
inhibition (1 minus fraction of control) (KYSE410 cells; KYSE410, concentration 100): 0.9766
IC50 (KYSE450 cells): 13.5 ± 1.21 µM
absorbance 490 nm, single well (KYSE450 cells; [3]): 0.4487 and 0.4214 and 0.4264 and 0.4518
mean absorbance 490 nm (row G) (KYSE450 cells; [3]): 0.4371
mean absorbance 490 nm minus background (row H) (KYSE450 cells; [3]): 0.3824
absorbance 490 nm, single well (KYSE450 cells; [4]): 0.0614 and 0.062 and 0.0618
mean absorbance 490 nm (row G) (KYSE450 cells; [4]): 0.06165
mean absorbance 490 nm minus background (row H) (KYSE450 cells; [4]): 0.00697
absorbance 490 nm, single well (KYSE450 cells; [5]): 0.0565 and 0.0602 and 0.0592 and 0.0604
mean absorbance 490 nm (row G) (KYSE450 cells; [5]): 0.05908
mean absorbance 490 nm minus background (row H) (KYSE450 cells; [5]): 0.004395
absorbance 490 nm, single well (KYSE450 cells; [6]): 0.0606 and 0.0657 and 0.0613 and 0.0623
mean absorbance 490 nm (row G) (KYSE450 cells; [6]): 0.06248
mean absorbance 490 nm minus background (row H) (KYSE450 cells; [6]): 0.007795

IC50 (EGFR; [7]): 1.29 µM
IC50 (EGFR; [8]): 4.41 µM
melting point: 125 to 127 °C
SMILES: Clc1ccccc1-n1cc(-c2cccc(Nc3ncnc4cc5c(cc34)OCCOCCOCCO5)c2)nn1 [compound 3e]
IC50 (H1650 cells): 5.61 ± 0.3 µM
IC50 (H1975 cells; [2]): 13.1 ± 1.02 µM
IC50 (SHEE cells): 10.3 ± 0.84 µM
IC50 (KYSE70 cells): 7.75 ± 0.68 µM
blank-corrected absorbance 490 nm relative to control (fraction) (KYSE70 cells; KYSE70, concentration 12.5): 0.1936
inhibition (1 minus fraction of control) (KYSE70 cells; KYSE70, concentration 12.5): 0.8064
blank-corrected absorbance 490 nm relative to control (fraction) (KYSE70 cells; KYSE70, concentration 25): 0.0586
inhibition (1 minus fraction of control) (KYSE70 cells; KYSE70, concentration 25): 0.9414
blank-corrected absorbance 490 nm relative to control (fraction) (KYSE70 cells; KYSE70, concentration 50): 0.07267
inhibition (1 minus fraction of control) (KYSE70 cells; KYSE70, concentration 50): 0.9273
blank-corrected absorbance 490 nm relative to control (fraction) (KYSE70 cells; KYSE70, concentration 100): 0.08298
inhibition (1 minus fraction of control) (KYSE70 cells; KYSE70, concentration 100): 0.917
IC50 (KYSE410 cells): 11.7 ± 1.01 µM
blank-corrected absorbance 490 nm relative to control (fraction) (KYSE410 cells; KYSE410, concentration 12.5): 0.4649
inhibition (1 minus fraction of control) (KYSE410 cells; KYSE410, concentration 12.5): 0.5351
blank-corrected absorbance 490 nm relative to control (fraction) (KYSE410 cells; KYSE410, concentration 25): 0.2124
inhibition (1 minus fraction of control) (KYSE410 cells; KYSE410, concentration 25): 0.7876
blank-corrected absorbance 490 nm relative to control (fraction) (KYSE410 cells; KYSE410, concentration 50): 0.02952
inhibition (1 minus fraction of control) (KYSE410 cells; KYSE410, concentration 50): 0.9705
blank-corrected absorbance 490 nm relative to control (fraction) (KYSE410 cells; KYSE410, concentration 100): 0.05985
inhibition (1 minus fraction of control) (KYSE410 cells; KYSE410, concentration 100): 0.9402
IC50 (KYSE450 cells): 21.8 ± 1.47 µM
absorbance 490 nm, single well (KYSE450 cells; [3]): 0.5603 and 0.5422 and 0.5648 and 0.5469
mean absorbance 490 nm (row G) (KYSE450 cells; [3]): 0.5535
mean absorbance 490 nm minus background (row H) (KYSE450 cells; [3]): 0.4989
absorbance 490 nm, single well (KYSE450 cells; [4]): 0.3988 and 0.3524 and 0.3487 and 0.3334
mean absorbance 490 nm (row G) (KYSE450 cells; [4]): 0.3583
mean absorbance 490 nm minus background (row H) (KYSE450 cells; [4]): 0.3036
absorbance 490 nm, single well (KYSE450 cells; [5]): 0.0685 and 0.0639 and 0.0619 and 0.065 and 0.0672
mean absorbance 490 nm (row G) (KYSE450 cells; [5]): 0.0653
mean absorbance 490 nm minus background (row H) (KYSE450 cells; [5]): 0.01062
absorbance 490 nm, single well (KYSE450 cells; [6]): 0.0642 and 0.0659 and 0.0644 and 0.0663
mean absorbance 490 nm (row G) (KYSE450 cells; [6]): 0.0652
mean absorbance 490 nm minus background (row H) (KYSE450 cells; [6]): 0.01052

SMILES: C#Cc1cccc(Nc2ncnc3cc(OCCOC)c(OCCOC)cc23)c1 [erlotinib, reference compound]
expression of proliferation marker Ki-67 in tumor ([1]; 50 mg/kg i.p., immunofluorescence): decreased significantly
expression of P-ERK (Tyr202/204) in tumor ([1]; 50 mg/kg i.p., immunohistochemistry): decreased significantly
ESCC tumor volume [1, 9]: markedly reduced
average tumor weight [1, 9]: markedly reduced

IC50 (H1975OR cells; 24 h, read-out: 24 h IC50): 13.8 ± 2.98 µM
IC50 (H1975OR cells; 48 h, read-out: 48 h IC50): 5.97 ± 0.289 µM
SMILES: C=CC(=O)Nc1cc(Nc2nccc(-c3cn(C)c4ccccc34)n2)c(OC)cc1N(C)CCN(C)C [osimertinib, reference compound]
IC50 (H1975 cells; NCI-H1975, 24 h, H1975, MTT, 24 h, resistance-inducing drug (osimertinib), read-out: 24 h IC50): 0.585 ± 0.0261 µM
IC50 (H1975 cells; NCI-H1975, 48 h, H1975, MTT, 48 h, resistance-inducing drug (osimertinib), read-out: 48 h IC50): 0.102 ± 0.0121 µM
